Test results from paper PMC4966929, “Two Distinct Cardiolipin Synthases Operate in Agrobacterium tumefaciens” (PLoS ONE, 2016).

Molecular target: T1, Cls2 (Agrobacterium fabrum, UniProt A9CHR9)
T1 construct: gene cls; native full-length enzyme in A. tumefaciens crude extract (wild type and delta-cls1 lysates, assigned by loss in delta-cls2); about 54 kDa, not purified, no tag
T1 sequence (A9CHR9 1-486): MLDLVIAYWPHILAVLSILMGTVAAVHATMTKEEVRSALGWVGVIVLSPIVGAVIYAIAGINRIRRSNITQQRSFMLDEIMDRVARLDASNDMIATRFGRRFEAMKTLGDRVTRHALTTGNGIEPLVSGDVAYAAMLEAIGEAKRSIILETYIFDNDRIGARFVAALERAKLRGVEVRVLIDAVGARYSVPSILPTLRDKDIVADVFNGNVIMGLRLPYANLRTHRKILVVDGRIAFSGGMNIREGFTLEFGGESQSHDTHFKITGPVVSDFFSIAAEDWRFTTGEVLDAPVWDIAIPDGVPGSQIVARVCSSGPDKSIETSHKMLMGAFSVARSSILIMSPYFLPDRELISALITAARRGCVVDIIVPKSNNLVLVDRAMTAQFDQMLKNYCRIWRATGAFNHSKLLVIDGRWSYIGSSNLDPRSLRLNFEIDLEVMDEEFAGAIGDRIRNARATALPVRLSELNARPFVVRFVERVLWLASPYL
Experiment: CL formation in crude extract of wild type and cls deletion strains, lipid extraction, 1D-TLC
Assay type: biochemical
Conditions: 0.4 mM lipid in micellar form, 0.02% Triton X-100, 50 mM Tris/HCl, 50 mM NaCl, pH 8, 30 C, 12 h; 300 ug total protein

Question: For CCCCCCCC/C=C\CCCCCCCC(=O)OC[C@H](COP(=O)(O)OCC(O)CO)OC(=O)CCCCCCC/C=C\CCCCCCCC (mixture of isomers) [PG, 1,2-dioleoyl-sn-glycero-3-phospho-rac-(1-glycerol)], which “CL formation in crude extract of wild type and cls deletion strains, lipid extra” value is on record?
Answer: The value was “suggesting that PG-dependent CL accumulation is mediated by Cls2”.
